Reference: US20030104473A1, “Common ligand mimics: benzimidazoles” (priority 2001, published 2003)
Like-named read-outs stand apart in the source and are kept apart here.

How the values were obtained:
[1] = target: dihydrofolate reductase (DHFR) (UniProt P00374); experiment: DHFR kinetic assay, spectrophotometric oxidation of NADH at 340 nm; type: biochemical
Description: For DHFR analysis, the compounds were screened using a kinetic protocol that spectrophotometrically evaluates oxidation of NADH.
Stock solutions of each of the reagents were prepared in the following concentrations. Dilutions of the stock solutions were prepared prior to running the assay in the concentrations indicated below. H2 folate was dissolved in DMSO to about 10 mM and then diluted with water to a concentration of 0.1 mM.
The DHFR reaction was monitored at 340 nm prior to and after addition of the inhibitor to detect background reaction with the inhibitor. Solutions of 100 μl of the inhibitors in DMSO were prepared to provide a final DMSO concentration of 5% of the total assay volume. These solutions were incubated for 6 minutes at 25° C. in a 992 μl of a solution containing 0.1 M Tris-HCl, pH 7.0, 150 mM KCl, 5 μM H2 folate, and 52 μM NADH. The oxidation reaction was then initiated with 8 μl of DHFR (0.047 mg/ml). After the enzyme was added, the solution was mixed for 20 seconds, and the reaction was run for 10 minutes. After a 50 second lag, the samples were read in a Cary spectrophotometer at 340 nm. Reading of the samples was continued until 300 seconds. Cuvette #1 always contained the control reaction (no inhibitor), and cuvette #2 always contained the positive control reaction in which Cibacron Blue at 3 μM was substituted for inhibitor to yield 50 to 70% inhibition. […]

[2] = target: 1-deoxy-D-xylulose-5-phosphate reductase (DOXPR) (Escherichia coli, UniProt P45568); experiment: DOXPR kinetic assay, spectrophotometric oxidation of NADPH at 340 nm; type: biochemical
Description: For DOXPR analysis, the compounds were screened using a kinetic protocol that spectrophotometrically evaluates oxidation of NADPH.
Stock solutions of each of the reagents were prepared in the following concentrations. Dilutions of the stock solutions were prepared prior to running the assay in the concentrations indicated below. DOXPR was diluted in 10 mM HEPES at a pH of 7.4.
The DOXPR reaction was monitored at 340 nm prior to and after addition of the inhibitor to detect background reaction with the inhibitor. Solutions of the inhibitors in DMSO were prepared to provide a final DMSO concentration of 5% of the total assay volume. These solutions were incubated for 6 minutes at 25° C. in a 990 μl of a solution containing 0.1 M HEPES, pH 7.4, 1 mM MnCl21.15 mM DOXP, and 8 μM NADPH. The oxidation reaction was then initiated with 10 μl of DOXP reductoisomerase (10 μg/ml). After the enzyme was added, the solution was mixed for 20 seconds, and the reaction was run for 10 minutes. After a 50 second lag, the samples were read in a Cary spectrophotometer at 340 nm. Reading of the samples was continued until 300 seconds. Cuvette #1 contained the control reaction (no inhibitor), and cuvette #2 contained the positive control reaction in which Cibacron Blue at 10.32 μM was substituted for inhibitor to yield 70 to 80% inhibition. The substrate was kept at a level at least 10 times the Km.

[3] = target: glyceraldehyde-3-phosphate dehydrogenase (GAPDH) (Escherichia coli, UniProt P0A9B2); experiment: GAPDH kinetic assay, spectrophotometric reduction of NAD+ at 340 nm; type: biochemical, E. coli
Description: For GAPDH analysis, the compounds were screened using a kinetic protocol that spectrophotometrically evaluates reduction of NAD+.
(§1) Stock solutions of each of the reagents were prepared in the following concentrations. Dilutions of the stock solutions were prepared prior to running the assay in the concentrations indicated below.
The GAPDH reaction was monitored at 340 nm prior to and after addition of the inhibitor to detect background reaction with the inhibitor. Solutions of 100 μl of the inhibitors incubated for 6 minutes at 25° C. in a 990 μl of a solution containing 125 mM triethanolamine, pH 7.5, 145 μM glyceraldehyde 3-phosphate (GAP), 0.211 mM NAD, 5 mM sodium arsenate, and 3 mM β-metcaptoethanol (2-BME). The reaction was then initiated with 10 gl of E. coli GAPDH (1:200 dilution of 1.0 mg/ml). After the enzyme was added, the solution was mixed for 20 seconds, and the reaction was run for 10 minutes. After a 50 second lag, the samples were read in a Cary spectrophotometer at 340 nm. Reading of the samples was continued until 300 seconds. The final concentration of DMSO in a cuvette was about 5% of the total assay volume. Cuvette #1 contained the control reaction (no inhibitor).
GAP for use in this experiment was deprotected from the diethyl acetal in the following manner. Water was boiled in recrystallizing dish. […]

[4] = target: T1, lactate dehydrogenase (LDH) (Oryctolagus cuniculus, UniProt P13491); experiment: LDH kinetic assay, spectrophotometric oxidation of NADH at 340 nm; type: biochemical, Rabbit Muscle; conditions: Example 13 oxidoreductase panel (FIG. 7)
T1 construct: 10 μl of LDH from Rabbit Muscle; from tissue; host or cells: rabbit muscle
Description: For LDH analysis, the compounds were screened using a kinetic protocol that spectrophotometrically evaluates oxidation of NADH.
as §1
The LDH reaction was monitored at 340 nm prior to and after addition of the inhibitor to detect background reaction with the inhibitor. Solutions of 100 μl of the inhibitors in DMSO were prepared to provide a final DMSO concentration of 5% of the total assay volume. These solutions were incubated for 6 minutes at 25° C. in a 990 μl of a solution containing 0.1 M HEPES, pH 7.4, 10 μM NADH, and 2.5 mM of pyruvate. The reaction was then initiated with 10 μl of LDH from Rabbit Muscle (0.5 μg/ml; 1:2000 dilution of 1.0 mg/ml). After the enzyme was added, the solution was mixed for 20 seconds, and the reaction was run for 10 minutes. After a 50 second lag, the samples were read in a Cary spectrophotometer at 340 nm. Reading of the samples was continued until 300 seconds. Cuvette #1 contained the control reaction (no inhibitor), and cuvette #2 contained the positive control reaction in which Cibacron Blue at 10.3 μM was substituted for inhibitor to yield 50 to 70% inhibition. The substrate was kept at a level at least 10 times the Km.

Sequence of glyceraldehyde-3-phosphate dehydrogenase (GAPDH) (P0A9B2 whole entry): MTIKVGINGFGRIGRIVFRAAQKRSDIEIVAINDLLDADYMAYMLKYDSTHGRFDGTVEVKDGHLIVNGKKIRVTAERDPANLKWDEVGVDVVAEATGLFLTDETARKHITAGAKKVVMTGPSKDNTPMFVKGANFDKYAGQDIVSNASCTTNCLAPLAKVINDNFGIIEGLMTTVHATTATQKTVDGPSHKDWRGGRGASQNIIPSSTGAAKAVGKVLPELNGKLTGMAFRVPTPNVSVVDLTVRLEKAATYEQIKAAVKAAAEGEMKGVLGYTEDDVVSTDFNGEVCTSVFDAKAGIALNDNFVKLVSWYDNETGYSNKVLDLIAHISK
Sequence of 1-deoxy-D-xylulose-5-phosphate reductase (DOXPR) (P45568 whole entry): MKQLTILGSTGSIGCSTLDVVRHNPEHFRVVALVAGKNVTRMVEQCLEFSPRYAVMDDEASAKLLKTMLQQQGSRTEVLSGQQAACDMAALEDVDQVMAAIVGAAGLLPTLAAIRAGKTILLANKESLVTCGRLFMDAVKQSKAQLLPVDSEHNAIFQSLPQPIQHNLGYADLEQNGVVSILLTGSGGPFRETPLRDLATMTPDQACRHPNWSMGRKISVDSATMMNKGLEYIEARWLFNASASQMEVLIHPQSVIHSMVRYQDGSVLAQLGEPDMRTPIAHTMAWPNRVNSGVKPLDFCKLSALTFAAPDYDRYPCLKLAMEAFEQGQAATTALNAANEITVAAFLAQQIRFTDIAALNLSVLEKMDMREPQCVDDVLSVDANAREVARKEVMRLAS
Sequence of dihydrofolate reductase (DHFR) (P00374 whole entry): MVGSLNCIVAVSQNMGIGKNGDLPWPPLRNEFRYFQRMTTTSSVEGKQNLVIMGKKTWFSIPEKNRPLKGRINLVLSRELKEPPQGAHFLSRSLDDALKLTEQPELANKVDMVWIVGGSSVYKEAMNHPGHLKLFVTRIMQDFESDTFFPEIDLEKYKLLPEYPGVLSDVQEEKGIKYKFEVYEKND

SMILES	IC50 ([1]; Example 13 oxidoreductase panel (FIG. 7); read-out: IC50 for DHFR)	IC50 ([2]; Example 13 oxidoreductase panel (FIG. 7), read-out: IC50 for DOXPR)	IC50 ([3]; Example 13 oxidoreductase panel (FIG. 7), read-out: IC50 for GAPDH)	IC50 [4]	IC50 ([1]; read-out: IC50 for DHFR; Example 13 oxidoreductase panel (FIG. 7))	IC50 [2]	IC50 [3]
O=C(O)c1ccc(-c2ccc(-c3nc4ccccc4[nH]3)o2)cc1 [compound 6b, 4-[5-(1H-benzoimidazol-2-yl)-furan-2-yl] benzoic acid]	> 40 µM	> 60 µM	> 60 µM				
O=C(O)c1ccc(-c2ccc(-c3nc4cc([N+](=O)[O-])ccc4[nH]3)o2)cc1 [compound 6d, 4-[5-(5-nitro-1H-benzoimidazol-2-yl)-furan-2-yl]-benzoic acid]				4.56 µM	48.5 µM	21.4 µM	> 150 µM
